The values that follow come from ChEMBL document CHEMBL1147611, “Anti-AIDS agents. Part 57: Actein, an anti-HIV principle from the rhizome of Cimicifuga racemosa (black cohosh), and the anti-HIV activity of related saponins” (Bioorg Med Chem Lett, 2004).

Each structure is given as a SMILES string. ≈ marks a conversion by molar mass, not a printed value.

Data set [1] is described as follows: Therapeutic index of compound was determined by the ratio of IC50 to that of EC50. The conditions noted are these: human, H9 cells; read-out: TI. Format: cell-based.
Data set [2] has as its system H9. The data set is described as follows: Effective concentration required to suppress HIV replication in H9 lymphocytes was determined; Moderate activity. It counts as functional, cell-based, Homo sapiens.
In data set [3] the test system is H9. The data set is described as follows: Effective concentration required to suppress HIV replication in H9 lymphocytes was determined. It counts as functional, cell-based. The conditions noted are these: Homo sapiens.

Consider `C[C@@H]1C[C@H]2O[C@@]3(O[C@@H]2C(C)(C)O)[C@H](O)[C@@]2(C)[C@@H]4CC[C@H]5C(C)(C)[C@@H](O[C@@H]6OC[C@@H](O)[C@H](O)[C@H]6O)CC[C@@]56C[C@@]46CC[C@]2(C)[C@@H]13`, for which, in data set [1], the selectivity ratio came to 30.2. By EC50 is commonly meant the concentration needed to bring the measured effect to its halfway point. A high value points to weaker potency. Turning to `C=CC(C)(O)CC/C=C(\CO)C(=O)OC[C@@H]1O[C@@H](OC(=O)[C@]23CCC(C)(C)C[C@H]2C2=CC[C@@H]4[C@@]5(C)CC[C@H](O[C@@H]6O[C@@H](CO[C@@H]7OC[C@H](O)[C@H](O)[C@@H]7O[C@@H]7OC[C@@H](O)[C@H](O)[C@@H]7O)[C@@H](O)[C@H](O)[C@@H]6O)C(C)(C)[C@@H]5CC[C@@]4(C)[C@]2(C)CC3)C(O[C@@H]2O[C@@H](C)[C@H](O[C@@H]3OC[C@@H](O)[C@H](O[C@@H]4OC[C@@H](O)[C@H](O)C4O)[C@@H]3O)[C@H](O)[C@H]2O)[C@@H](O)[C@@H]1O` (some centres undefined), the EC50 result in the data set on H9 [2] was “Moderate”.

Consider `C[C@@H]1CC[C@@]2(OC1)O[C@H]1C[C@H]3[C@@H]4CC[C@@H]5C[C@@H](O[C@@H]6O[C@@H](CO)[C@H](O)[C@H](O)[C@@H]6O[C@@H]6O[C@@H](CO)[C@@H](O)[C@H](O)[C@@H]6O)CC[C@]5(C)[C@H]4CC[C@]3(C)[C@H]1[C@@H]2C`, for which the EC50 in the data set with H9 [3] is below 0.25 µg/mL.

In the case of `CC(=O)O[C@@H]1C[C@@]23C[C@@]24CC[C@H](OC2OCC(O)C(O)C2O)C(C)(C)[C@@H]4CC[C@H]3[C@]2(C)C[C@@H]3O[C@]4(C[C@@H](C)[C@@H]3[C@@]12C)OC[C@]1(C)O[C@H]41` (some centres undefined), the selectivity ratio in data set [1] is 30.2. Still for that read-out and setting: next, `C[C@@H]1C[C@]2(C[C@@H](C)[C@H]3[C@@H](C[C@@]4(C)C5=C(CC[C@]34C)[C@@]3(C)CC[C@H](O[C@@H]4O[C@@H](O[C@@H]6OC[C@H](O)[C@H](O)[C@@H]6O[C@@H]6O[C@@H](CO)[C@@H](O)[C@H](O)[C@@H]6O[C@@H]6O[C@@H](C)[C@H](O)[C@H](O)[C@H]6O)[C@@H](O)[C@H](O)[C@@H]4O)[C@@](C)(CO)[C@@H]3CC5)O2)OC1=O`: 30.2; `CC(=O)OC1COC(O[C@H]2CC[C@]34C[C@]35CC[C@]3(C)[C@@H]([C@H](C)C[C@@H](OC(C)=O)[C@@H]6OC6(C)C)C(=O)[C@H](OC(C)=O)[C@@]3(C)[C@@H]5CC[C@H]4C2(C)C)C(OC(C)=O)C1OC(C)=O` (some centres undefined): 30.2.

With `C[C@H]1[C@H]2[C@H](C[C@@]3(C)C4=CC[C@H]5C(C)(C)[C@@H](OC6OCC(O)C(O)C6O)CC[C@@]56C[C@@]46CC[C@]23C)O[C@@]2(O)[C@@H]1OC(C)(C)[C@H]2O` (some centres undefined), in data set [1], the selectivity ratio amounted to 30.2. With `C[C@H]1[C@H]2[C@H](C[C@@]3(C)[C@@H]4CC[C@H]5C(C)(C)[C@@H](OC6OCC(O)C(O)C6O)CC[C@@]56C[C@@]46CC[C@]23C)O[C@@]2(O)[C@@H]1OC(C)(C)[C@H]2O` (some centres undefined), in data set [1], the selectivity ratio was 30.2.

Regarding `CC(=O)O[C@@H]1C[C@@]23C[C@@]24CC[C@H](OC2OCC(O)C(O)C2O)C(C)(C)[C@@H]4CC[C@H]3[C@]2(C)C[C@@H]3O[C@]4(C[C@@H](C)[C@@H]3[C@@]12C)O[C@H](O)[C@@]1(C)O[C@@H]41` (some centres undefined), the selectivity ratio in data set [1] turned out to be 144. The same molecule yielded an EC50 with H9 [3] of 0.375 µg/mL (≈ 0.554 µM).

In the case of `C=CC(C)(O)CC/C=C(\CO)C(=O)O[C@H]1[C@H](O[C@@H]2[C@H](OC(=O)[C@]34CCC(C)(C)C[C@H]3C3=CC[C@@H]5[C@@]6(C)CC[C@H](O[C@H]7O[C@@H](CO[C@@H]8OC[C@H](O)[C@@H](O)[C@@H]8O[C@@H]8OC[C@@H](O)[C@H](O)[C@@H]8O)[C@@H](O)[C@H](O)[C@@H]7O)C(C)(C)[C@@H]6CC[C@@]5(C)[C@]3(C)CC4)O[C@@H](COC(=O)/C(=C/CC[C@](C)(C=C)O[C@@H]3OC[C@@H](O)[C@H](O)[C@@H]3OC(=O)/C(=C/CC[C@@](C)(O)C=C)CO)CO)[C@@H](O)[C@@H]2O)O[C@@H](C)[C@H](O[C@@H]2OC[C@@H](O)[C@H](O[C@@H]3OC[C@@H](O)[C@H](O)[C@@H]3O)[C@@H]2O)[C@@H]1O` (some centres undefined), the EC50 result in the data set on H9 [2] is “Moderate”. On the same count and under the same terms, next, `C=CC(C)(O)CC/C=C(\CO)C(=O)O[C@H]1[C@@H](OC[C@@H]2O[C@@H](OC(=O)[C@]34CCC(C)(C)C[C@H]3C3=CC[C@@H]5[C@@]6(C)CC[C@H](O[C@@H]7O[C@@H](CO[C@@H]8OC[C@H](O)[C@H](O)[C@@H]8O[C@@H]8OC[C@@H](O)[C@H](O)[C@@H]8O)[C@@H](O)[C@H](O)[C@@H]7O)C(C)(C)[C@@H]6CC[C@@]5(C)[C@]3(C)C[C@H]4O)C(O[C@@H]3O[C@@H](C)[C@H](O[C@@H]4OC[C@@H](O)[C@H](O[C@@H]5OC[C@@H](O)[C@H](O)C5O)[C@@H]4O)[C@H](O)[C@H]3O)[C@@H](O)[C@@H]2O)O[C@@H](C)[C@H](O)[C@@H]1OC(=O)/C(=C/CCC(C)(O)C=C)CO` (some centres undefined): “Moderate”; `C=CC(C)(O)CC/C=C(\CO)C(=O)OC[C@@H]1O[C@@H](OC(=O)[C@]23CCC(C)(C)C[C@H]2C2=CC[C@@H]4[C@@]5(C)CC[C@H](O[C@@H]6O[C@@H](CO[C@@H]7OC[C@H](O)[C@H](O)[C@@H]7O[C@@H]7OC[C@@H](O)[C@H](O)[C@@H]7O)[C@@H](O)[C@H](O)[C@@H]6O)C(C)(C)[C@@H]5CC[C@@]4(C)[C@]2(C)C[C@H]3O)C(O[C@@H]2O[C@@H](C)[C@H](O[C@@H]3OC[C@@H](O)[C@H](O[C@@H]4OC[C@@H](O)[C@H](O)C4O)[C@@H]3O)[C@H](O)[C@H]2O)[C@@H](O)[C@@H]1O` (some centres undefined): “Moderate”. As to `C[C@@H]1CC[C@@]2(OC1)O[C@H]1C[C@H]3[C@@H]4CC[C@@H]5C[C@@H](O[C@@H]6O[C@@H](CO)[C@@H](O)[C@H](O)[C@@H]6O[C@@H]6O[C@H](C)[C@H](O)[C@@H](O)[C@@H]6O)CC[C@]5(C)[C@H]4CC[C@]3(C)[C@H]1[C@@H]2C`, in the data set on H9 [3], the EC50 was below 0.25 µg/mL.
